Assay results as given in ChEMBL document CHEMBL3045406, “Enantioselective Relieving Activity of α-Methylbenzylphenylureas toward Bensulfuron-methyl Injury to Rice (Oryza sativa)” (Biosci Biotechnol Biochem, 1999).

Experiments:
Oryza sativa [1] = test: Relieving activity against bensulfuron-methyl induced injury to Oryza sativa (rice) assessed as growth rate at 0.1 uM (Rbv = 46 to 53%); type: functional
[2] = Hydrophobicity, log K of the compound; type: physicochemical; conditions: octanol/water
Oryza sativa [3] = test: Effect on Oryza sativa (rice) assessed as growth rate at 0.1 uM relative to control; type: organism-based; conditions: in vivo
Oryza sativa [4] = test: Safener indices, ratio of compound effect of Oryza sativa (rice) growth rate to relieving activity against bensulfuron-methyl induced injury to Oryza sativa growth rate at 10 uM
Oryza sativa [5] = test: Effect on Oryza sativa (rice) assessed as growth rate at 10 uM relative to control; type: organism-based; conditions: in vivo
Oryza sativa [6] = test: Relieving activity against bensulfuron-methyl induced injury to Oryza sativa (rice) assessed as growth rate at 10 uM (Rbv = 46 to 53%); type: functional
Oryza sativa [7] = test: Safener indices, ratio of compound effect of Oryza sativa (rice) growth rate to relieving activity against bensulfuron-methyl induced injury to Oryza sativa growth rate at 1 uM
Oryza sativa [8] = test: Relieving activity against bensulfuron-methyl induced injury to Oryza sativa (rice) assessed as growth rate at 1 uM (Rbv = 46 to 53%); type: functional
Oryza sativa [9] = test: Safener indices, ratio of compound effect of Oryza sativa (rice) growth rate to relieving activity against bensulfuron-methyl induced injury to Oryza sativa growth rate at 0.1 uM
Oryza sativa [10] = test: Effect on Oryza sativa (rice) assessed as growth rate at 1 uM relative to control; type: organism-based; conditions: in vivo

Compound	Activity (Oryza sativa [1])	log K [2]	Activity (Oryza sativa [3])	Ratio (Oryza sativa [4])	Activity (Oryza sativa [5])	Activity (Oryza sativa [6])	Ratio (Oryza sativa [7])	Activity (Oryza sativa [8])	Ratio (Oryza sativa [9])	Activity (Oryza sativa [10])
COc1cccc(NC(=O)N[C@@H](C)c2ccccc2)c1	65%	0.277	101%	94	99%	97%	70	86%	22	99%
COc1ccccc1NC(=O)N[C@H](C)c1ccccc1	54%	0.343	100%	42	96%	72%	-4	55%	-1	105%
COc1ccccc1NC(=O)N[C@@H](C)c1ccccc1	55%	0.343	98%	46	95%	74%	28	68%	9	99%
COc1cccc(NC(=O)N[C@H](C)c2ccccc2)c1	54%	0.277	104%	57	70%	73%	27	63%	-5	92%
CCOC(=O)c1ccccc1NC(=O)N[C@H](C)c1ccccc1	53%	0.667	100%	54	100%	77%	25	63%	6	100%
CCOC(=O)c1ccccc1NC(=O)N[C@@H](C)c1ccccc1	50%	0.667	100%	34	100%	67%	21	60%	0	100%
CCOC(=O)c1cccc(NC(=O)N[C@H](C)c2ccccc2)c1	57%	0.419	99%	77	88%	87%	51	74%	15	94%
CCOC(=O)c1cccc(NC(=O)N[C@@H](C)c2ccccc2)c1	72%	0.419	100%	89	96%	95%	70	85%	44	99%
CCOC(=O)c1ccc(NC(=O)N[C@H](C)c2ccccc2)cc1	56%	0.415	101%	79	92%	89%	56	78%	11	100%
CCOC(=O)c1ccc(NC(=O)N[C@@H](C)c2ccccc2)cc1	76%	0.415	99%	86	92%	92%	76	87%	53	97%
C[C@@H](NC(=O)Nc1ccc(C(F)(F)F)cc1)c1ccccc1	59%	0.537	93%	42	82%	67%	53	74%	22	89%
C[C@H](NC(=O)Nc1ccc(C(F)(F)F)cc1)c1ccccc1	67%	0.537	94%	86	94%	93%	72	85%	36	94%
